Measurements as given in US9850293B2, “Targeting trastuzumab-resistant HER2+ breast cancer with a HER3-targeting nanoparticle” (priority 2014, dated 2017).
Entries after “also recorded” stand apart in the source; their conditions may differ.

Columns and labels:
[1] = tested on: MDA-MB-231 (HER2−); experiment: Targeted toxicity, cell survival by MTT assay; type: cell-based, human; details: 0.5 μM with respect to Dox; HerPBK10 0.1 μM; day 3
Method: (§1) FIG. 7 illustrates targeted toxicity. […] Cell titer was determined by metabolic (i.e. MTT) assay. FIG. 7 upper panel illustrates the effect of HerDox on MDA-MB-231 (HER2−) and MDA-MB-435 (HER2+) cell survival. Relative surviving cell numbers are represented as a % of corresponding untreated cells. […] Relative survival (as % of untreated cells) is shown for Day 3 of treatment.
(§2) N=3. […] Bar, about 4 μm. […] (E) compares HerDox and Dox on off-target tissue. […] Green fluorescence in nuclei indicates apoptosis (positive TUNEL stain).
(§3) By three days, HerDox reduced HER2+ cell numbers by over 75% whereas HER2− cell survival was unaffected (FIG. 7). […] These findings emphasize the importance of targeting by showing that the untargeted drug affects nontarget (i.e. HER2−) cells. […] To test receptor targeting, the inventors used free heregulin ligand (Her or eHRG) as a competitive inhibitor. […] As a final in vitro challenge, the inventors tested whether HerDox induces toxicity specifically to HER2+ cells in a mixed culture of HER2+ and HER2− breast cancer cells. To do this, the inventors produced a HER2− cell line tagged with green fluorescent protein (GFP) for cell identification in the mixed culture (FIG. 9-A). […] Altogether, these findings indicate that HerDox has the capacity to preferentially target toxicity to HER2+ cells. […] In serum-containing media, no such loss from HerDox is detectable. […] Co-migration of HerPBK10 bands further verified that the conjugates remained intact in the cell media.

[2] = tested on: MDA-MB-435 cells; experiment: HerPBK10 binding to cells in human serum (ELISA); details: 1.2 μg/well, sera of 5 HER2+ patients and age-matched controls
Method: FIG. 16 illustrates HerPBK10 binding to MDA-MB-435 cells in human serum from HER2+ or HER2− breast cancer patients. Cells were treated with HerPBK10 (1.2 μg/well) in media containing human serum from each of 5 HER2+ breast cancer patients or age matched HER2− controls, both obtained pre-chemotherapy treatment. Cells were processed for ELISA using an antibody directed at HerPBK10. Control (C) wells receiving HerPBK10 in media containing bovine serum without or with 100× molar excess competitive ligand inhibitor (+Her) are indicated by open bars. Patient sera were provided by the WCRI tissue bank at Cedars-Sinai Medical Center. N=3 wells per treatment.
To determine whether HerPBK10 competes with circulating ligand that may be present in serum, the inventors tested HerPBK10 binding to HER2+ breast cancer cells in human serum obtained from HER2+ patients. The Women's Cancer Research Institute at Cedars-Sinai occasionally acquires limited quantities of patient serum, of which sera from HER2+ patients comprises an even smaller minority. […] Here, the inventors replaced the bovine serum in the routine culturing media with the human serum obtained from the acquired patient samples to assess whether the human serum, especially from HER2+ patients, inhibits cell binding. […]

[3] = tested on: MDA-MB-435 (HER2+); experiment: Targeted toxicity, cell survival by MTT assay; type: cell-based, human; details: Dox 0.5 μM; HerPBK10 0.1 μM; day 3
Method: as §1
FIG. 8 illustrates receptor specificity. MDA-MB-435 (HER2+) cells were incubated with free ligand (eHRG) at 10× molar excess of HerDox for one hour at 4° C. Media was aspirated to remove free eHRG and fresh media containing HerDox (0.5 μM) was added to cells. Cell survival was measured by MTT assay and represented as a % of relative untreated cell numbers.
as §2, §3

[4] = tested on: HER2+ tumor; experiment: Biodistribution of labeled HerPBK10, Tz and BSA; type: in vivo, mouse; details: tail vein, four hours after injection
Method: (§4) (A) compares biodistribution and intracellular trafficking of HerPBK10 and Tz.
Fluorescently-labeled HerPBK10 was prepared to assess its bio-distribution and cell uptake in comparison to labeled Tz. Equivalent doses of each reagent were injected into the tail veins of HER2+ tumor bearing mice. Tissues were harvested at four hours after injection for imaging. Both reagents were compared to a labeled non-targeted protein, BSA.

[5] = tested on: HER3 on 4T1 mouse mammary tumor cells; experiment: Binding of HerPBK10 to mouse mammary tumor cells
Excerpt: (A) is an amino acid sequence alignment of domains I-II (heregulin-binding domain) of human (SEQ ID NO:13) and mouse HER3 (SEQ ID NO:14). (B) compares relative HER3 levels on different cell lines, detected by ELISA (without permeabilization) using an anti-HER3 antibody that cross-reacts with both human and mouse HER3 (1B2E; Cell Signaling Technologies). […] N=3. *, p<0.05 compared to HerPBK10 alone.
Mouse 4T1 cells, obtained from a BALB/c mouse mammary tumor, are triple-negative and have been used as a syngeneic TNBC model in BALB/c mice. […] The receptor-specific binding of HerPBK10 to mouse HER3 reflects the high level of amino acid sequence identity between mouse and human HER3: 91% identity for the entire protein and 94% in the heregulin-binding region (extracellular domains I and II) (FIG. 32-A). […] Importantly, human BT-549 cells, which are also derived from a TNBC, display elevated HER3 on the cell surface (FIG. 32-B) and provide an additional TNBC cell line to target.

[6] = target: T1, HER3 (human ErbB3 extracellular domain) (Homo sapiens, UniProt P21860); experiment: ELISA of HerPBK10 binding to immobilized HER3
T1 construct: immobilized peptide containing the extracellular domain of human HER3; purchased Prospec
Excerpt: (§5) Un, no HerPBK10. […] HerPBK10 binding to HER3 is not inhibited by patient serum.
(§6) Binding was also not inhibited by a HER4 peptide or betacellulin (which blocks HER4) (FIG. 26-B).

[7] = tested on: HER3 on parental cell lines (BT474 and SKBR3); experiment: Tz pre-treatment: cell surface HER3 and HerPBK10 binding; type: cell-based, human; details: 0.5 mg/mL Tz for 24 hours
Method: N=3. […] N=3. […] N=3. […] N=3. […] N=3. […] N=3.
(§7) N=3. *, p<0.05 compared to parental. […] N=3. *, p<0.05 compared to parental.
The parental and resistant cell lines were pretreated with Tz for 4 or 24 hours before HerDox treatment.
(§8) Parental lines were exposed to Tz for 24 hours and then measured cell surface HER3 levels in comparison to non-treated parental cells. […] As a means of evaluating whether the nanoparticles described herein are capable of recognizing HER3 on human tissue, breast tumor tissue was obtained from a surgical specimen of a HER2+ patient and examined whether HerPBK10 could bind this tissue via HER3.

[8] = tested on: HER2+ tumors (MDA-MB-435); experiment: In vivo tumor toxicity (tumor growth); set-up: species or system mouse; details: 0.004 mg/kg with respect to Dox, daily tail vein injections for 7 days
[9] = tested on: HER2+ cells; experiment: ELISA of HerPBK10 binding to HER2+ cells with competitive inhibitors
Excerpt: as §5, §6

[10] = Neutralizing antibody formation after repeat dosing; type: in vivo, mouse; details: repeat dosing at therapeutic and 10-fold higher levels, immunocompetent mice
Excerpt: Therefore, receptor binding is not inhibited by patient sera.

[11] = tested on: primary tumor cells from a surgical specimen of a HER2+ patient; experiment: Binding to primary human tumor cells; details: elevated HER3, very low HER2
Method: as §7, §8

[12] = tested on: human cardiosphere-derived cells (CDCs); experiment: Human CDC viability; details: escalating concentrations, 48 hour exposure
Method: Control groups received saline or HerPBK10 at equivalent concentration to HerMn. Treatments began at ˜200 mm^3 average tumor volume. Tumor volumes were measured before (day 1), during (day 3), and after (days 8, 15, and 22) injections of reagents. N=8-10 tumors/group. *p<0.05 (one-way ANOVA). […] N=3 per conc, from 3 separate experiments.
To assess translatability, the viability of human cardiosphere-derived cells (CDCs) in the presence of HerGa and/or HerMn was examined.

[13] = tested on: HER2+ MDA-MB-435 cells; experiment: Cell uptake (fluorescence confocal microscopy); type: cell-based, human; details: after cell surface clustering
Method: as §4
The uptake in HER2+ MDA-MB-435 cells were also evaluated.

Q: Which results are given for “HerPBK10: receptor binding domain of heregulin fused to adenovirus penton base protein modified by a C-terminal decalysine”?
A: effect on HER2− cell survival [1]: had no effect on either cell line; cell binding in serum from HER2+ patients, HER2− patients or bovine serum [2]: no significant differences; also recorded: did not prevent HerPBK10 binding; effect on HER2+ cell survival [3]: had no effect on either cell line; also recorded: does not induce cell death; delivery to the heart, spleen, and muscle [4]: nearly absent delivery; lung delivery [4]: no lung delivery; tumor accumulation [4]: equivalent levels of tumor accumulation; binding to 4T1 cells with human HER3 peptide [5]: competitively inhibited by human HER3 peptide; recognition of HER3 on 4T1 cells [5]: is recognized by HerPBK10; binding to immobilized HER3 after pre-adsorption with free HER3 peptide [6]: inhibited by pre-adsorption of HerPBK10 with free HER3 peptide; binding to immobilized HER3 peptide [6]: binds to an immobilized peptide containing the extracellular domain of human HER3; HerPBK10 binding to Tz pre-treated parental cells [7]: augments HerPBK10 binding; also recorded: proportionately increased; effect on tumor growth [8]: had no effect; binding to HER2+ cells with pertuzumab (Pz) [9]: did not prevent HerPBK10 binding; binding to HER2+ cells after pre-adsorption with free HER3 peptide ([9]; 1× and 10× molar ratio): also inhibited HerPBK10 binding; binding to HER2+ cells with HER4 peptide or betacellulin ([9]; betacellulin 10 μg/mL): not inhibited; neutralizing antibody formation against the protein [10]: did not yield detectable neutralizing antibody formation; binding to disaggregated patient tumor cells [11]: exhibiting greater binding than Tz; also recorded: showing greater binding than Tz; effect on CDC viability [12]: no detectable effect on CDC viability; time to significant endocytosis [13]: ≤ 45 min
